According to PubChem BioAssay AID1259411 (Chemical Carcinogenesis Research Information System (CCRIS), 2018):
Activity calls are given as the source filed them. No rule for the calls is given here.

Tested on: rodent carcinogenicity bioassays, tumor incidence
Assay: CCRIS carcinogenicity studies
Outline: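 NCI-built, expert-reviewed records of carcinogenicity and related test outcomes (mutagenicity, tumor promotion/inhibition) compiled from published and report sources, historical span 1985-2011, not updated.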

Question: For `CCN(CCO)N=O`, which carcinogen call (Species: HAMSTER, Strain/Sex: SYRIAN/MALE, Route: ORAL, Dose: 0, 1000, 2000 PPM IN DIET FOR 2 WK (STUDY DURATION: 30 WK), Dose: 0, 1000, 2000 PPM IN DIET FOR 2 WK (STUDY DURATION: 30 WK)) is on record?
Answer: inactive; negative

Question: And the carcinogen call (Species: MOUSE, Strain/Sex: BALB/C/MALE, Route: ORAL, Dose: 0, 1000, 2000 PPM IN DRINKING WATER FOR 2 WK (STUDY DURATION: 52 WK), Dose: 0, 1000, 2000 PPM IN DRINKING WATER FOR 2 WK (STUDY DURATION: 52 WK), Tumor Site: Type of Lesion: LUNG: TUMOR)?
Answer: active; positive

Question: And the carcinogen call (Species: MOUSE, Strain/Sex: BALB/MALE, Route: ORAL, Dose: 0, 1000, 2000 PPM IN DIET FOR 2 WK (STUDY DURATION: 30 WK), Dose: 0, 1000, 2000 PPM IN DIET FOR 2 WK (STUDY DURATION: 30 WK), Tumor Site: Type of Lesion: LUNG: TUMOR)?
Answer: active; positive

Question: What about the carcinogen call (Species: MOUSE, Strain/Sex: STRAIN-A/MALE, Route: ORAL, Dose: 0, 1000, 2000 PPM IN DIET FOR 2 WK (STUDY DURATION: 30 WK), Dose: 0, 1000, 2000 PPM IN DIET FOR 2 WK (STUDY DURATION: 30 WK), Tumor Site: Type of Lesion: LIVER: TUMOR, LUNG: TUMOR) of the same molecule?
Answer: active; positive

Question: What about the carcinogen call (Species: RAT, Strain/Sex: F344/MALE, Route: ORAL, Dose: 0, 1000 PPM IN DIET FOR 2 WK (STUDY DURATION: 30 WK)) of the same molecule?
Answer: inactive; negative

Question: And the carcinogen call (Species: RAT, Strain/Sex: WISTAR/FEMALE, Route: ORAL, Dose: 0, 1000 PPM IN DIET FOR 2 WK (STUDY DURATION: 30 WK), Tumor Site: Type of Lesion: KIDNEY: RENAL CELL TUMOR)?
Answer: active; positive

Question: And the carcinogen call (Species: RAT, Strain/Sex: WISTAR/MALE, Route: ORAL, Dose: 0, 1000, 2000 PPM IN DRINKING WATER FOR 2 WK (STUDY DURATION: 52 WK), Dose: 0, 1000, 2000 PPM IN DRINKING WATER FOR 2 WK (STUDY DURATION: 52 WK), Tumor Site: Type of Lesion: KIDNEY: TUMOR)?
Answer: active; positive

Question: What about the carcinogen call (Species: RAT, Strain/Sex: WISTAR/MALE, Route: ORAL, Dose: 0, 1000 PPM IN DIET FOR 2 WK (STUDY DURATION: 30 WK), Tumor Site: Type of Lesion: KIDNEY: RENAL CELL TUMOR, LIVER: TUMOR) of the same molecule?
Answer: active; positive

Question: And the carcinogen call (Species: RAT, Strain/Sex: WISTAR/MALE, Route: ORAL, Dose: 0, 1000 PPM IN DRINKING WATER FOR 2 WK (STUDY DURATION: 30 WK), Tumor Site: Type of Lesion: KIDNEY: RENAL CELL TUMOR)?
Answer: active; positive

Question: `CN(C)c1ccc(N=Nc2ccccc2)cc1` was tested. Which carcinogen call (Species: DOG, Route: ORAL, Tumor Site: Type of Lesion: URINARY BLADDER) did it give?
Answer: active; positive

Question: What about the carcinogen call (Species: MOUSE, Route: SUBCUTANEOUS, Tumor Site: Type of Lesion: LIVER, INJECTION SITE) of the same molecule?
Answer: active; positive

Question: And the carcinogen call (Species: MOUSE, Strain/Sex: B6C3F1/FEMALE, Route: INTRAPERITONEAL, Dose: 0, 0.3 UMOL/G IN TRIOCTANOIN ONCE ON DAY 1 FOLLOWED BY 0.4 UMOL/G ONCE ON DAY 8, 15 AND 22 (STUDY DURATION: 10 MO))?
Answer: inactive; negative

Question: What about the carcinogen call (Species: MOUSE, Strain/Sex: B6C3F1/MALE, Route: INTRAPERITONEAL, Dose: 0, 0.017, 0.05, 0.15, 0.45 UMOL/G ONCE IN TRIOCTANOIN (STUDY DURATION: 10 MO), Dose: 0, 0.017, 0.05, 0.15, 0.45 UMOL/G ONCE IN TRIOCTANOIN (STUDY DURATION: 10 MO), Tumor Site: Type of Lesion: LIVER: HEPATOMA) of the same molecule?
Answer: active; positive

Question: And the carcinogen call (Species: MOUSE, Strain/Sex: B6C3F1/MALE, Route: INTRAPERITONEAL, Dose: 0, 0.3 UMOL/G IN TRIOCTANOIN ONCE ON DAY 1 FOLLOWED BY 0.4 UMOL/G ONCE ON DAY 8, 15 AND 22 (STUDY DURATION: 10 MO), Tumor Site: Type of Lesion: LIVER: HEPATOMA)?
Answer: active; positive

Question: And the carcinogen call (Species: RAT, Route: ORAL, Tumor Site: Type of Lesion: LIVER)?
Answer: active; positive

Question: And the carcinogen call (Species: RAT, Strain/Sex: F344/MALE, Route: INTRAPERITONEAL, Dose: 0, 0.3 UMOL/G IN TRIOCTANOIN ONCE ON DAY 1 FOLLOWED BY 0.4 UMOL/G ONCE ON DAY 8, 15 AND 22 (STUDY DURATION: 10 MO))?
Answer: inactive; negative

Question: For `Nc1ccc2nc3ccccn3c2n1`, which carcinogen call (Species: MOUSE, Strain/Sex: CDF1/FEMALE, Route: ORAL, Dose: 0, 0.05% IN DIET FOR UP TO 685 D (STUDY DURATION: 685 D), Tumor Site: Type of Lesion: LIVER: HEPATOCELLULAR ADENOMA OR CARCINOMA, BLOOD VESSELS: HEMANGIOENDOTHELIOMA OR HEMANGIOENDOTHELIAL SARCOMA) is on record?
Answer: active; positive

Question: What about the carcinogen call (Species: MOUSE, Strain/Sex: CDF1/MALE, Route: ORAL, Dose: 0, 0.05% IN DIET FOR UP TO 685 D (STUDY DURATION: 685 D), Tumor Site: Type of Lesion: LIVER: HEPATOCELLULAR ADENOMA OR CARCINOMA, BLOOD VESSELS: HEMANGIOENDOTHELIOMA OR HEMANGIOENDOTHELIAL SARCOMA) of the same molecule?
Answer: active; positive

Question: And the carcinogen call (Species: RAT, Strain/Sex: F344/FEMALE, Route: ORAL, Dose: 0, 500 PPM IN DIET (AV DAILY DOSE: 4.9 MG) FOR 24 MO (STUDY DURATION: 104 WK), Tumor Site: Type of Lesion: SMALL INTESTINE: ADENOMA OR ADENOCARCINOMA OR MUCINOUS CARCINOMA, LARGE INTESTINE: ADENOMA OR ADENOCARCINOMA OR MUCINOUS)?
Answer: active; positive

Question: What about the carcinogen call (Species: RAT, Strain/Sex: F344/MALE, Route: ORAL, Dose: 0, 500 PPM IN DIET (AV DAILY DOSE: 7.5 MG) FOR 24 MO (STUDY DURATION: 104 WK), Tumor Site: Type of Lesion: LIVER: HEPATOCELLULAR CARCINOMA OR ANAPLASTIC HEPATOMA, SMALL INTESTINE: ADENOMA OR ADENOCARCINOMA OR MUCINOUS CARCINOMA) of the same molecule?
Answer: active; positive

Question: Which carcinogen call (Species: MOUSE, Strain/Sex: B6C3F1/FEMALE, Route: ORAL, Dose: 0, 0.32, 0.64 PPM IN DIET, Dose: 0, 0.32, 0.64 PPM IN DIET) does the source give for `Cl[C@@H]1C2(Cl)C3C4[C@@H]5O[C@@H]5[C@H]5C3[C@@](Cl)(C2(Cl)Cl)[C@]1(Cl)[C@@H]45` (stereo partly specified) here?
Answer: inactive; negative

Question: What about the carcinogen call (Species: MOUSE, Strain/Sex: B6C3F1/MALE, Route: ORAL, Dose: 0, 0.32, 0.64 PPM IN DIET, Dose: 0, 0.32, 0.64 PPM IN DIET) of the same molecule?
Answer: inactive; negative

Question: And the carcinogen call (Species: RAT, Strain/Sex: OSBORNE-MENDEL/FEMALE, Route: ORAL, Dose: 0, 3.4, 7.5 PPM IN DIET, TWA, Dose: 0, 3.4, 7.5 PPM IN DIET, TWA)?
Answer: inactive; negative

Question: And the carcinogen call (Species: RAT, Strain/Sex: OSBORNE-MENDEL/MALE, Route: ORAL, Dose: 0, 5, 10 PPM IN DIET, Dose: 0, 5, 10 PPM IN DIET)?
Answer: inactive; negative

Question: With `Cc1cccc(C)c1NC(=O)CN1CCCC1=O` as the molecule, how does the carcinogen call (Species: MOUSE, Strain/Sex: B6C3F1/FEMALE, Route: ORAL, Dose: 0, 30, 90, 270 MG/KG/D IN DIET FOR 104 WK (STUDY DURATION: 104 WK), Dose: 0, 30, 90, 270 MG/KG/D IN DIET FOR 104 WK (STUDY DURATION: 104 WK)) read?
Answer: inactive; negative

Question: What about the carcinogen call (Species: MOUSE, Strain/Sex: B6C3F1/MALE, Route: ORAL, Dose: 0, 30, 90, 270 MG/KG/D IN DIET FOR 104 WK (STUDY DURATION: 104 WK), Dose: 0, 30, 90, 270 MG/KG/D IN DIET FOR 104 WK (STUDY DURATION: 104 WK)) of the same molecule?
Answer: inactive; negative

Question: What about the carcinogen call (Species: RAT, Strain/Sex: F344/FEMALE, Route: ORAL, Dose: 0, 200, 600, 1800 PPM IN DIET FOR 104 WK (STUDY DURATION: 104 WK), Dose: 0, 200, 600, 1800 PPM IN DIET FOR 104 WK (STUDY DURATION: 104 WK)) of the same molecule?
Answer: inactive; negative

Question: And the carcinogen call (Species: RAT, Strain/Sex: F344/MALE, Route: ORAL, Dose: 0, 200, 600, 1800 PPM IN DIET FOR 104 WK (STUDY DURATION: 104 WK), Dose: 0, 200, 600, 1800 PPM IN DIET FOR 104 WK (STUDY DURATION: 104 WK))?
Answer: inactive; negative

Question: Which carcinogen call (Species: MOUSE, Strain/Sex: B6C3F1/FEMALE, Route: ORAL, Dose: 0, 0.08, 0.15, 0.3% IN DRINKING WATER FOR 96 WK (STUDY DURATION: 110 WK), Dose: 0, 0.08, 0.15, 0.3% IN DRINKING WATER FOR 96 WK (STUDY DURATION: 110 WK)) does the source give for `CC1(C)[C@@H](O[C@H]2O[C@H](C(=O)O)[C@@H](O)[C@H](O)[C@H]2O[C@@H]2O[C@H](C(=O)O)[C@@H](O)[C@H](O)[C@H]2O)CC[C@]2(C)[C@H]3C(=O)C=C4[C@@H]5C[C@@](C)(C(=O)O)CC[C@]5(C)CC[C@@]4(C)[C@]3(C)CC[C@@H]12` here?
Answer: inactive; negative

Question: And the carcinogen call (Species: MOUSE, Strain/Sex: B6C3F1/MALE, Route: ORAL, Dose: 0, 0.04, 0.08, 0.15% IN DRINKING WATER FOR 96 WK (STUDY DURATION: 110 WK), Dose: 0, 0.04, 0.08, 0.15% IN DRINKING WATER FOR 96 WK (STUDY DURATION: 110 WK))?
Answer: inactive; negative

Question: Which carcinogen call (Species: RAT, Strain/Sex: SPRAGUE-DAWLEY/MALE, Route: ORAL, Dose: 0, 1.5 UG/ML IN DRINKING WATER FOR AN AVERAGE DAILY DOSE OF 12.7 UG/KG DURING WK10-20 THEN 4.8 UG/KG DURING WK 21-104 (S, Tumor Site: Type of Lesion: LIVER: HEPATOCELLULAR ADENOMA OR CARCINOMA) does the source give for `CC1(C)O[C@@H]2C[C@H]3[C@@H]4CCC5=CC(=O)C=C[C@]5(C)[C@@]4(F)[C@@H](O)C[C@]3(C)[C@]2(C(=O)CO)O1` here?
Answer: active; positive
